Measured values from patent publication US7888285B2, “2,4,6-phenyl substituted cyclic ketoenols” (Bayer CropScience AG, priority 2003, dated 2011).

Assays:
Assay type in all cases: in vivo
[1] = tested on: Spring barley; assay: Post-emergence crop plant tolerance, greenhouse experiments with safener pretreatment (mefenpyr); conditions: no safener
Method: (§1) Post-Emergence Crop Plant Tolerance
(§2) Seeds of monocotyledonous and dicotyledonous weed and crop plants are placed in sandy loam in wood fibre pots or in plastic pots, covered with soil and grown in the greenhouse or, during the vegetation period, in the open outside the greenhouse, under good growth conditions. 2 to 3 weeks after sowing, the test plants are treated in the one- to three-leaf stage. The test compounds, which are formulated as wettable powder (WP) or as a fluid (EC), are sprayed onto the plants and the soil surface at various dosage rates with a water application rate of 300 l/ha (converted), with added wetter (0.2 to 0.3%). 3 to 4 weeks after the treatment of the test plants, the effect of the preparations is scored visually in comparison with untreated controls (herbicidal activity in per cent (%): 100% activity=plants have died, 0% activity=like control plants).
(§3) If it is additionally desired to test whether safeners are capable of improving the plant tolerance of test substances with regard to the crop plants, the following options for applying the safeners are used: • Prior to application of the test substances, the crop plants are sprayed with safener at a particular application rate per hectare (usually 1 day prior to application of the test substances). • The safener is applied together with the test substance in the form of a tank mix (the amount of safener being indicated in g/ha or as a safener:herbicide ratio).
(§4) The activity of the safener substance can be assessed in comparison with untreated control plants by comparing the effect of test substances on crop plants which have been treated without and with safener.
(§5) Results of Greenhouse Experiments With Safener/Pretreatment (Safener Mefenpyr (100 g a.i./ha), One Day Prior to Post-Emergence Treatment With the Herbicide)

[2] = tested on: cereals; assay: Container experiments with cereals outside the greenhouse, herbicide:mefenpyr 1:2 tank mix; conditions: no safener
Method: as §2, §3, §4
Container Experiments with Cereals Outside the Greenhouse Herbicide: mefenpyr 1:2 tank mix

[3] = tested on: Spring wheat; assay: Post-emergence crop plant tolerance, greenhouse experiments with safener pretreatment (mefenpyr); conditions: no safener
Method: as §1, §2, §3, §4, §5

[4] = tested on: cereals; assay: Container experiments with cereals outside the greenhouse, herbicide + mefenpyr 50 g a.i./ha; conditions: 100 g a.i./ha, no safener
Method: as §2, with “plants). […]” for “plants).”
The activity of the safener substance can be assessed in comparison with untreated control plants by comparing the effect of test substances on crop plants which have been treated without and with safener. […]

[5] = tested on: Alopecurus; assay: Post-emergence test; conditions: greenhouse, 250 g a.i./ha, scored after three weeks
Method: (§6) To prepare a suitable active compound preparation, 1 part by weight of active compound is mixed with the stated amount of solvent, the stated amount of emulsifier is added, and the concentrate is diluted with water to the desired concentration.
(§7) Test plants with a height of 5-15 cm are sprayed with the active compound preparation in such a way that the amounts of active compound desired in each case are applied per unit area. The concentration of the spray mixture is chosen in such a way that the amounts of active compound desired in each case are applied in 1 000 1 of water/ha.
(§8) After three weeks, the degree of damage of the plants is scored in % damage in comparison with the development of the untreated control.
(§9) The figures denote: • 0% =no effect (like untreated control) • 100% =total destruction

[6] = tested on: Avena fatua; assay: Post-emergence test; conditions: greenhouse, 250 g a.i./ha, scored after three weeks
Method: as §6, §7, §8, §9

[7] = tested on: Echinochloa; assay: Post-emergence test; conditions: greenhouse, 250 g a.i./ha, scored after three weeks
Method: as §6, §7, §8, §9

[8] = tested on: Setaria; assay: Post-emergence test; conditions: greenhouse, 250 g a.i./ha, scored after three weeks
Method: as §6, §7, §8, §9

[9] = tested on: sugar beet; assay: Post-emergence test; conditions: greenhouse, 250 g a.i./ha, scored after three weeks
Method: as §6, §7, §8, §9

[10] = tested on: Alopecurus; assay: Pre-emergence test; conditions: greenhouse, 250 g a.i./ha, scored after three weeks
Method: (§10) [table] To prepare a suitable active compound preparation, 1 part by weight of active compound is mixed with the stated amount of solvent, the stated amount of emulsifier is added, and the concentrate is diluted with water to the desired concentration. Seeds of the test plant are sown in normal soil. After approximately 24 hours, the soil is sprayed with the active compound preparation in such a way that the amounts of active compound desired in each case are applied per unit area. The concentration of the spray mixture is chosen in such a way that the amounts of active compound desired in each case are applied in 1 000 1 of water/ha. After three weeks, the degree of damage of the plants is scored in % damage in comparison with the development of the untreated control.

[11] = tested on: Avena fatua; assay: Pre-emergence test; conditions: greenhouse, 250 g a.i./ha, scored after three weeks
Method: as §10

[12] = tested on: Echinochloa; assay: Pre-emergence test; conditions: greenhouse, 250 g a.i./ha, scored after three weeks
Method: as §10

[13] = tested on: Setaria; assay: Pre-emergence test; conditions: greenhouse, 250 g a.i./ha, scored after three weeks
Method: as §10

[14] = tested on: Sinapis; assay: Pre-emergence test; conditions: greenhouse, 250 g a.i./ha, scored after three weeks
Method: as §10

[15] = tested on: Meloidogyne incognita; assay: Meloidogyne test; conditions: 20 ppm, with reference to gall formation
Method: To prepare a suitable active compound preparation, 1 part by weight of active compound is mixed with the stated amounts of solvent and emulsifier and the concentrate is diluted with water to the desired concentration.
Containers are filled with sand, active compound solution, Meloidogyne incognita egg/larval suspension and lettuce seeds. The lettuce seeds germinate and the plantlets develop. The galls develop on the roots.
After the desired time, the nematicidal efficacy is determined I n % with reference to gall formation. 100% means that no galls were found; 0% means that the number of galls on the treated plants corresponds to that of the untreated control.

[16] = tested on: larvae of the mustard beetle (Phaedon cochleariae); assay: Phaedon larvae test; conditions: 1000 ppm
Method: [table] To produce a suitable preparation of active compound, 1 part by weight of active compound is mixed with the stated amounts of solvent and emulsifier, and the concentrate is diluted with emulsifier-containing water to the desired concentration. Cabbage leaves (Brassica oleracea) are treated by being dipped into the preparation of active compound of the desired concentration and are infested with the larvae of the mustard beetle (Phaedon cochleariae) while the leaves are still moist.

[17] = tested on: Sinapis; assay: Post-emergence test; conditions: greenhouse, 250 g a.i./ha, scored after three weeks
Method: as §6, §7, §8, §9

CCc1cc(Cl)cc(OC)c1C1=C(OC(=O)C(C)(C)C)C2(CCC(OC)CC2)OC1=O (mixture of isomers) [Example I-2-b-6]
Spring barley observed (%) ([1]; 25 g a.i./ha herbicide): 50% | Spring barley observed (%) ([1]; 50 g a.i./ha herbicide): 97% | Spring barley observed (%) ([1]; 100 g a.i./ha herbicide): 98% | Spring barley observed (%) ([2]; 50 g a.i./ha): 40% | Spring wheat observed (%) ([2]; 50 g a.i./ha): 100%

CCOC(=O)OC1=C(c2c(CC)cc(Cl)cc2OC)C(=O)OC12CCCCC2 [Example I-2-c-1]
Spring wheat observed (%) ([3]; 50 g a.i./ha herbicide): 20% | Spring wheat observed (%) ([3]; 100 g a.i./ha herbicide): 30% | Spring barley observed (%) ([2]; 100 g a.i./ha): 15% | Spring wheat observed (%) ([2]; 100 g a.i./ha): 40% | Spring barley observed (%) ([4]; spring barley): 50% | Spring wheat observed (%) ([4]; spring wheat): 65%

CCc1cc(Cl)cc(OC)c1C1=C(OC(=O)C(C)C)C2(CCC(OC)CC2)OC1=O (mixture of isomers) [Example I-2-b-5]
Spring barley observed (%) ([1]; 25 g a.i./ha herbicide): 50% | Spring barley observed (%) ([1]; 50 g a.i./ha herbicide): 97% | Spring barley observed (%) ([1]; 100 g a.i./ha herbicide): 100% | Spring wheat observed (%) ([3]; 25 g a.i./ha herbicide): 99%

CCc1cc(Cl)cc(OC)c1C1=C(OC(=O)C(C)(C)C)C2(CCCCC2)OC1=O [Example I-2-b-1]
Spring barley observed (%) ([1]; 50 g a.i./ha herbicide): 10% | Spring barley observed (%) ([1]; 100 g a.i./ha herbicide): 20% | Spring wheat observed (%) ([3]; 25 g a.i./ha herbicide): 20% | Spring wheat observed (%) ([3]; 50 g a.i./ha herbicide): 40% | Spring wheat observed (%) ([3]; 100 g a.i./ha herbicide): 60% | Spring barley observed (%) ([2]; 100 g a.i./ha): 20% | Spring wheat observed (%) ([2]; 100 g a.i./ha): 30%

CCc1cc(Cl)cc(OC)c1C1=C(O)C2(CCC(C)CC2)NC1=O (single isomer, unassigned) [Example I-1-a-4]
degree of damage, Alopecurus [5]: 100% | degree of damage, Avena fatua [6]: 100% | degree of damage, Echinochloa [7]: 100% | degree of damage, Setaria [8]: 100% | degree of damage, sugar beet [9]: 0% | degree of damage, Alopecurus [10]: 90% | degree of damage, Avena fatua [11]: 100% | degree of damage, Echinochloa [12]: 100% | degree of damage, Setaria [13]: 100% | degree of damage, Sinapis [14]: 90% | Destruction in % after 14 d [15]: 98% | Destruction in % after 7 d [16]: 100%

CCc1cc(Cl)cc(OC)c1C1=C(OC(=O)C(C)(C)C)C2(CCC(C)CC2)NC1=O (single isomer, unassigned) [Example I-1-b-4]
Spring barley observed (%) ([2]; 50 g a.i./ha): 60%

CCc1cc(Cl)cc(OC)c1C1=C(O)C(C)(C)NC1=O [Example I-1-a-5]
degree of damage, Alopecurus [5]: 100% | degree of damage, Avena fatua [6]: 100% | degree of damage, Echinochloa [7]: 100% | degree of damage, Setaria [8]: 100% | degree of damage, Sinapis [17]: 80% | degree of damage, Alopecurus [10]: 90% | degree of damage, Avena fatua [11]: 100% | degree of damage, Echinochloa [12]: 100% | degree of damage, Setaria [13]: 100%
